Some test systems named below: SF-539 CNS; T-47D breast; SK-MEL-2 melanoma; MCF7 breast; HOP-92 NSCLC; NCI-H226 lung; K-562 leukemia.
Test in all cases: growth of human tumour cells (NCI), 48 h

Several values for one entry are separate records, joined by “and”; a condition that tells them apart may be missing. Identical values can stand only once.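 In this assay, cells in 96-well plates receive the compound at five concentrations for 48 hours. Endpoints are linearly interpolated between the surrounding concentrations. Here, GI50 denotes the concentration required for 50% inhibition of growth. TGI denotes the concentration required for complete inhibition of growth.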 A value given as a limit tells only on which side of the number the result lay.

Consider `COc1cc(-c2ccc[nH]2)[nH]c1/C=C1\N=C(C)C(C(=O)NC(C)C)=C1C`, for which the GI50 was 5.47 µM in the assay with SF-539 CNS; 3.02 µM in the assay with T-47D breast; 2.45 µM in the assay on SK-MEL-2 melanoma; 2.82 µM in the assay with MCF7 breast; 2.22 µM in the assay with HOP-92 NSCLC; 3.77 µM in the assay with NCI-H226 lung. Besides, the GI50 with K-562 leukemia was 3.53 µM. For the same compound, the TGI stood at 20.2 µM in the assay with SF-539 CNS; 10.7 µM with T-47D breast; 5.49 µM in the assay on SK-MEL-2 melanoma; 12.3 µM with MCF7 breast; 6.05 µM in the assay on HOP-92 NSCLC; 20.4 µM in the assay with NCI-H226 lung. This compound yielded a TGI in the assay with K-562 leukemia of 15.2 µM.
Consider `C=C(c1ccc(C(=O)NCCCn2ccnc2)cc1)c1cc2c(cc1C)C(C)(C)CCC2(C)C`, for which the GI50 in the assay on SF-539 CNS is 0.0565 µM; in the assay with T-47D breast it was 0.281 µM; in the assay with SK-MEL-2 melanoma it was 2.71 µM; in the assay with MCF7 breast, 1.25 µM; in the assay with HOP-92 NSCLC it was 1.62 µM; with NCI-H226 lung, 2.1 µM. Further, in the assay on K-562 leukemia, the GI50 is 0.651 µM. Besides, the TGI in the assay on SF-539 CNS came to 2.17 µM; with T-47D breast it was 6.76 µM; in the assay with SK-MEL-2 melanoma it was 7.33 µM; with MCF7 breast, 13.8 µM; with HOP-92 NSCLC it was 7.26 µM; with NCI-H226 lung, 7.94 µM. Moreover, the TGI with K-562 leukemia was > 100 µM.
Regarding `COc1ccccc1CNCCCN1C(=O)c2ccc3c4c(ccc(c24)C1=O)C(=O)N(CCCNCCCCN)C3=O`, the GI50 in the assay with SF-539 CNS is 0.296 µM; with T-47D breast it was 0.573 µM; in the assay on SK-MEL-2 melanoma it was 0.233 µM; in the assay with MCF7 breast, 0.202 µM; in the assay with HOP-92 NSCLC it was 0.4 µM; in the assay on NCI-H226 lung, 0.828 µM. For the same compound, the GI50 with K-562 leukemia was 0.298 µM. In addition, the TGI in the assay on SF-539 CNS came to 0.818 µM; in the assay with T-47D breast, 2.4 µM; with SK-MEL-2 melanoma, 0.49 µM; with MCF7 breast it was 0.555 µM; in the assay on HOP-92 NSCLC, 1.65 µM; in the assay with NCI-H226 lung, 2.55 µM. The same compound registered a TGI in the assay with K-562 leukemia of 1.27 µM.
As for `COc1ccc([C@H]2c3[nH]c4ccccc4c3C[C@H]3C(=O)N(CCCCCCC(=O)NO)CC(=O)N23)cc1`, the GI50 in the assay on SF-539 CNS was 2.38 µM; in the assay with T-47D breast, 0.952 µM; in the assay with SK-MEL-2 melanoma it was 2.79 µM; in the assay with MCF7 breast, 1.78 µM; in the assay on HOP-92 NSCLC it was 1.38 µM; in the assay on NCI-H226 lung, 6.26 µM. The GI50 with K-562 leukemia is 0.895 µM. Also, the TGI with SF-539 CNS was > 33.3 µM; with T-47D breast, 25.6 µM; with SK-MEL-2 melanoma, > 33.3 µM; in the assay with MCF7 breast, > 33.3 µM; with HOP-92 NSCLC it was 24.2 µM; in the assay on NCI-H226 lung, > 33.3 µM. Moreover, the TGI in the assay on K-562 leukemia was > 33.3 µM.
On to `c1ccc2[nH]c(-c3cscn3)nc2c1`, for which the TGI in the assay with SF-539 CNS, with T-47D breast, in the assay with SK-MEL-2 melanoma, in the assay on MCF7 breast, in the assay on HOP-92 NSCLC and in the assay with NCI-H226 lung was > 100 µM in each case. Moreover, the TGI with K-562 leukemia is > 100 µM.
Regarding `C=C1CCC2C(C)(CO)C(O)CCC2(C)C1C/C=C1\C(=O)OCC1O` (configuration not stated), the TGI is 44.3 µM in the assay on SF-539 CNS; 74.7 µM in the assay with T-47D breast; 30.8 µM in the assay on SK-MEL-2 melanoma; 31.3 µM in the assay with MCF7 breast; 66.1 µM in the assay with HOP-92 NSCLC; > 100 µM in the assay on NCI-H226 lung. Moreover, in the assay on K-562 leukemia, the TGI is > 100 µM.
In the case of `CSc1ccc2c(c1)N(CCCN(C)C)c1ccccc1S2`, the TGI was 44.9 µM with SF-539 CNS; 25.9 µM in the assay on T-47D breast; 29.5 µM with SK-MEL-2 melanoma; 26.1 µM in the assay on MCF7 breast; 26.8 µM in the assay with HOP-92 NSCLC; 43.2 µM with NCI-H226 lung. The TGI in the assay on K-562 leukemia worked out at 17 µM.
For `COc1cc(C(=O)Nc2ccc(-c3nc4ccccc4[nH]3)cc2)cc(OC)c1OC`, the GI50 in the assay with SF-539 CNS was 11.6 µM; in the assay with T-47D breast it was 5.39 µM; in the assay on SK-MEL-2 melanoma, 14.5 µM; with MCF7 breast it was 11.2 µM; with HOP-92 NSCLC it was 6.41 µM; in the assay with NCI-H226 lung, 15.3 µM. In addition, the GI50 with K-562 leukemia was 7.39 µM. Besides, the TGI worked out at 27.9 µM in the assay with SF-539 CNS; 23.4 µM in the assay on T-47D breast; 29.5 µM in the assay on SK-MEL-2 melanoma; 30.6 µM in the assay with MCF7 breast; 24.2 µM in the assay on HOP-92 NSCLC; 36.7 µM in the assay on NCI-H226 lung. The compound also came in with a TGI in the assay with K-562 leukemia of 27.4 µM.
On to `CC(=O)Nc1ccc2c(c1)[nH]c(=O)c1cc(Cl)ccc12`, for which the TGI in the assay on SF-539 CNS was > 100 µM; in the assay with T-47D breast, > 100 µM; in the assay with SK-MEL-2 melanoma it was > 100 µM; in the assay with MCF7 breast it was 77.7 µM; in the assay with NCI-H226 lung, 90.4 µM; in the assay with K-562 leukemia, > 100 µM.
For the compound `COc1cc(COC(=O)N(C)[C@@H](Cc2ccccc2)C(=O)O)c([N+](=O)[O-])cc1OC`, the TGI with SF-539 CNS, in the assay with T-47D breast, in the assay on MCF7 breast, in the assay on HOP-92 NSCLC, with NCI-H226 lung and in the assay on K-562 leukemia was > 100 µM each time.
For the compound `O=C(Nc1ccc(-n2cc(-c3ccncc3)c(-c3ccc(Cl)c(O)c3)n2)cc1)c1ccc(Cl)c(Cl)c1`, the GI50 was 0.694 µM in the assay with SF-539 CNS; 8.09 µM with T-47D breast; 4.05 µM in the assay on SK-MEL-2 melanoma; 4.63 µM in the assay on MCF7 breast; 8.97 µM in the assay on HOP-92 NSCLC; 26.1 µM with NCI-H226 lung. Moreover, the GI50 in the assay with K-562 leukemia is 1.32 µM. Moreover, the TGI in the assay with SF-539 CNS, with T-47D breast, with SK-MEL-2 melanoma, in the assay with MCF7 breast, with HOP-92 NSCLC and in the assay on NCI-H226 lung was > 100 µM each time. Further, the TGI in the assay with K-562 leukemia was > 100 µM.
In the case of `CC(=O)OCCc1cc2ccccc2oc1=O`, the TGI in the assay with SF-539 CNS, in the assay with T-47D breast, in the assay with SK-MEL-2 melanoma, in the assay with MCF7 breast, in the assay on HOP-92 NSCLC and in the assay with NCI-H226 lung was > 100 µM throughout. Further, in the assay with K-562 leukemia, the TGI is > 100 µM.
As to `CC(C)(C)c1cnc(CSc2cnc(NC(=O)C3CCNCC3)s2)o1`, the GI50 is 0.243 µM and 0.179 µM with SF-539 CNS; 0.251 µM and 0.225 µM in the assay with T-47D breast; 0.124 µM and 0.197 µM in the assay on SK-MEL-2 melanoma; 0.0522 µM and 0.0505 µM with MCF7 breast; 0.114 µM and 0.17 µM in the assay with HOP-92 NSCLC; 0.663 µM and 0.222 µM in the assay with NCI-H226 lung. The GI50 in the assay with K-562 leukemia was 0.337 µM and 0.229 µM. For the same compound, the TGI in the assay on SF-539 CNS is 0.67 µM and 0.513 µM; in the assay on T-47D breast it was 0.847 µM and > 4.35 µM; in the assay with SK-MEL-2 melanoma it was 0.284 µM and 0.518 µM; in the assay on MCF7 breast it was > 53.3 µM; in the assay with HOP-92 NSCLC, 0.544 µM and 0.657 µM; with K-562 leukemia, > 53.2 µM.

The values are drawn from PubChem BioAssay (NCI).
